Experimental data from patent publication US20260070945A1, “MACROCYCLIC IMMUNOMODULATORS” (Bristol-Myers Squibb Company, priority 2022, published 2026).
pIC50: −log10 of the molar value. Where a SMILES comes first, the peptide text is derived from it. Bridges are numbered along the chain shown (N, C = ends). [ ]: non-standard residue; d: D form. The star is where a group is joined. ξ: configuration not given here. Phe(4-COOH) = N[C@@H](Cc1ccc(C(=O)O)cc1)C(=O)O; Bip = N[C@@H](Cc1ccc(-c2ccccc2)cc1)C(=O)O; Phe(3-Me) = Cc1cccc(C[C@H](N)C(=O)O)c1; Val(3-OH) = CC(C)(O)[C@H](N)C(=O)O; 4Pal = N[C@@H](Cc1ccncc1)C(=O)O; Cha = N[C@@H](CC1CCCCC1)C(=O)O; Cit = NC(=O)NCCC[C@H](N)C(=O)O; Ile(3ξ) = CCC(C)[C@H](N)C(=O)O; Carboxymethyl = O=C(O)C*; NMeA = CN[C@@H](C)C(=O)O; Orn = NCCC[C@H](N)C(=O)O; Aun = NCCCCCCCCCCC(=O)O; Dab = NCC[C@H](N)C(=O)O; AEEA = NCCOCCOCC(=O)O

target: T1, PD-1/PD-L1 interaction (PE-labeled human PD-L1-Ig binding to Jurkat cell line over-expressing human PD-1) (Homo sapiens, UniProt Q15116); test: Jurkat-PD-1 Cell Binding High-Content Screening Assay (CBA); details: Jurkat-hPD-1 cells, PE-labeled PD-L1-Ig 20 nM final; read-out: Jurkat HPD1 PDL1 IC50
T1 construct: expressed in transfected cells; host or cells: Jurkat
Summary of the method: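 Cells 8×10^3/well, DMEM + 10% FCS; cpd 2 h, 37 °C; PE–PD-L1-Ig 20 nM final, 1 h; PFA fix + Hoechst 33342, 3× dPBS wash; high-content imager.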

T1 sequence (Q15116 25-288): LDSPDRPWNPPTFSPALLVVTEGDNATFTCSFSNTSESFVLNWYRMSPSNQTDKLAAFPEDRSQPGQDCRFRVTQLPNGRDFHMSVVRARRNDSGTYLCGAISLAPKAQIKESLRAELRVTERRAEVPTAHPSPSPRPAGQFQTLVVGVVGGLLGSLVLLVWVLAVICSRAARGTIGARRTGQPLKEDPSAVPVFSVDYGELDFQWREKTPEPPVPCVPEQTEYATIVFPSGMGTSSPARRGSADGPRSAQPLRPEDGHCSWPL

In order of rising pIC50:
1. Cc1cccc(C[C@@H]2NC(=O)[C@H](CC(=O)O)NC(=O)[C@H](Cc3ccncc3)NC(=O)[C@H](Cc3ccc(OCC(=O)O)cc3)NC(=O)CSC[C@@H](C(=O)N[C@@H](CCN)C(=O)NCCOCCOCC(=O)NCCCCCCCCCCC(=O)O)NC(=O)[C@H](CO)NC(=O)[C@H](C(C)(C)O)NC(=O)[C@H](CC3CCCCC3)NC(=O)[C@H](CCN)NC(=O)[C@@H](CC(C)C)NC(=O)[C@H](C)N(C)C(=O)[C@H](Cc3ccc(OCC(=O)O)cc3)NC(=O)[C@H](Cc3ccc(-c4ccccc4)cc3)NC(=O)[C@H](Cc3ccc(OCC(=O)O)cc3)NC2=O)c1 [Example 1412] ({CH2CO}-Y(Carboxymethyl)[4Pal]D[Phe(3-Me)]Y(Carboxymethyl)[Bip]Y(Carboxymethyl)[NMeA][dL][Dab][Cha][Val(3-OH)]SC[Dab][AEEA][Aun]-OH; thioether N-14)  6.68
2. CCC(C)[C@@H]1NC(=O)[C@H](Cc2ccc(-c3ccccc3)cc2)NC(=O)[C@H](Cc2ccc(OCC(=O)O)cc2)NC(=O)[C@H](Cc2cccc(C)c2)NC(=O)[C@H](CC(=O)O)NC(=O)[C@H](Cc2ccc(C(=O)O)cc2)NC(=O)[C@H](Cc2ccncc2)NC(=O)CSC[C@@H](C(=O)N[C@@H](CCN)C(=O)NCCOCCOCC(=O)NCCCCCCCCCCC(=O)O)NC(=O)[C@H](CCCN)NC(=O)[C@H](C(C)C)NC(=O)[C@H](CC2CCCCC2)NC(=O)[C@H](CCN)NC(=O)[C@@H](CC(C)C)NC(=O)[C@H](C)N(C)C1=O (stereo partly drawn) [Example 1407] ({CH2CO}-[4Pal][Phe(4-COOH)]D[Phe(3-Me)]Y(Carboxymethyl)[Bip][Ile(3ξ)][NMeA][dL][Dab][Cha]V[Orn]C[Dab][AEEA][Aun]-OH; thioether N-14)  7.05
3. Cc1cccc(C[C@@H]2NC(=O)[C@H](CC(=O)O)NC(=O)[C@H](Cc3ccc(C(=O)O)cc3)NC(=O)[C@H](Cc3ccncc3)NC(=O)CSC[C@@H](C(=O)N[C@@H](CCN)C(=O)NCCOCCOCC(=O)NCCCCCCCCCCC(=O)O)NC(=O)[C@H](CCCN)NC(=O)[C@H](C(C)C)NC(=O)[C@H](CC3CCCCC3)NC(=O)[C@H](CCN)NC(=O)[C@@H](CC(C)C)NC(=O)[C@H](C)N(C)C(=O)[C@H](CCCNC(N)=O)NC(=O)[C@H](Cc3ccc(-c4ccccc4)cc3)NC(=O)[C@H](Cc3ccc(OCC(=O)O)cc3)NC2=O)c1 [Example 1406] ({CH2CO}-[4Pal][Phe(4-COOH)]D[Phe(3-Me)]Y(Carboxymethyl)[Bip][Cit][NMeA][dL][Dab][Cha]V[Orn]C[Dab][AEEA][Aun]-OH; thioether N-14)  7.29
4. Cc1cccc(C[C@@H]2NC(=O)[C@H](CC(=O)O)NC(=O)[C@H](Cc3ccc(OCC(=O)O)cc3)NC(=O)[C@H]([C@@H](C)O)NC(=O)CSC[C@@H](C(=O)N[C@@H](CCN)C(=O)NCCOCCOCC(=O)NCCCCCCCCCCC(=O)O)NC(=O)[C@H](CCC(=O)O)NC(=O)[C@H](C(C)(C)O)NC(=O)[C@H](CC3CCCCC3)NC(=O)[C@H](CCN)NC(=O)[C@@H](CC(C)C)NC(=O)[C@H](C)N(C)C(=O)[C@H](Cc3ccc(OCC(=O)O)cc3)NC(=O)[C@H](Cc3ccc(-c4ccccc4)cc3)NC(=O)[C@H](Cc3ccc(OCC(=O)O)cc3)NC2=O)c1 [Example 1408] ({CH2CO}-TY(Carboxymethyl)D[Phe(3-Me)]Y(Carboxymethyl)[Bip]Y(Carboxymethyl)[NMeA][dL][Dab][Cha][Val(3-OH)]EC[Dab][AEEA][Aun]-OH; thioether N-14)  7.54
5. Cc1cccc(C[C@@H]2NC(=O)[C@H](CC(=O)O)NC(=O)[C@H](Cc3ccc(C(=O)O)cc3)NC(=O)[C@H](Cc3ccncc3)NC(=O)CSC[C@@H](C(=O)N[C@@H](CCN)C(=O)NCCOCCOCC(=O)NCCCCCCCCCCC(=O)O)NC(=O)[C@H](CCCN)NC(=O)[C@H](C(C)C)NC(=O)[C@H](CC3CCCCC3)NC(=O)[C@H](CCN)NC(=O)[C@@H](CC(C)C)NC(=O)[C@H](C)N(C)C(=O)[C@H](CCCNC(N)=O)NC(=O)[C@H](Cc3ccc(-c4ccccc4)cc3)NC(=O)[C@H](Cc3ccc(C(=O)O)cc3)NC2=O)c1 [Example 1404] ({CH2CO}-[4Pal][Phe(4-COOH)]D[Phe(3-Me)][Phe(4-COOH)][Bip][Cit][NMeA][dL][Dab][Cha]V[Orn]C[Dab][AEEA][Aun]-OH; thioether N-14)  7.58
6. Cc1cccc(C[C@@H]2NC(=O)[C@H](CC(=O)O)NC(=O)[C@H](Cc3ccc(C(=O)O)cc3)NC(=O)[C@H](Cc3ccncc3)NC(=O)CSC[C@@H](C(=O)N[C@@H](CCN)C(=O)NCCOCCOCC(=O)NCCCCCCCCCCC(=O)O)NC(=O)[C@H](CCCN)NC(=O)[C@H](C(C)C)NC(=O)[C@H](CC3CCCCC3)NC(=O)[C@H](CCN)NC(=O)[C@@H](CC(C)C)NC(=O)[C@H](C)N(C)C(=O)[C@H](Cc3ccc(OCC(=O)O)cc3)NC(=O)[C@H](Cc3ccc(-c4ccccc4)cc3)NC(=O)[C@H](Cc3ccc(OCC(=O)O)cc3)NC2=O)c1 [Example 1405] ({CH2CO}-[4Pal][Phe(4-COOH)]D[Phe(3-Me)]Y(Carboxymethyl)[Bip]Y(Carboxymethyl)[NMeA][dL][Dab][Cha]V[Orn]C[Dab][AEEA][Aun]-OH; thioether N-14)  7.63
7. CCC(C)[C@@H]1NC(=O)[C@H](Cc2ccc(-c3ccccc3)cc2)NC(=O)[C@H](CC(C)C)NC(=O)[C@H](Cc2c[nH]c3ccccc23)NC(=O)[C@H](CC(=O)O)NC(=O)[C@H](Cc2ccc(C(=O)O)cc2)NC(=O)[C@H](Cc2ccc(OCC(=O)O)cc2)NC(=O)CSC[C@@H](C(=O)N[C@@H](CC(N)=O)C(=O)NCCOCCOCC(=O)NCCCCCCCCCCC(=O)O)NC(=O)[C@H](CO)NC(=O)[C@H](C(C)(C)O)NC(=O)[C@H](CC2CCCCC2)NC(=O)[C@H](CCN)NC(=O)[C@@H](CC(C)C)NC(=O)[C@H](C)N(C)C1=O (stereo partly drawn) [Example 1409] ({CH2CO}-Y(Carboxymethyl)[Phe(4-COOH)]DWL[Bip][Ile(3ξ)][NMeA][dL][Dab][Cha][Val(3-OH)]SCN[AEEA][Aun]-OH; thioether N-14)  7.63
8. CC(C)C[C@@H]1NC(=O)[C@H](Cc2c[nH]c3ccccc23)NC(=O)[C@H](CC(=O)O)NC(=O)[C@H](Cc2ccc(C(=O)O)cc2)NC(=O)[C@H](Cc2ccc(OCC(=O)O)cc2)NC(=O)CSC[C@@H](C(=O)N[C@@H](CC(N)=O)C(=O)NCCOCCOCC(=O)NCCCCCCCCCCC(=O)O)NC(=O)[C@H](CO)NC(=O)[C@H](C(C)(C)O)NC(=O)[C@H](CC2CCCCC2)NC(=O)[C@H](CCN)NC(=O)[C@@H](CC(C)C)NC(=O)[C@H](C)N(C)C(=O)[C@H](C(C)C)NC(=O)[C@H](Cc2ccc(-c3ccccc3)cc2)NC1=O [Example 1413] ({CH2CO}-Y(Carboxymethyl)[Phe(4-COOH)]DWL[Bip]V[NMeA][dL][Dab][Cha][Val(3-OH)]SCN[AEEA][Aun]-OH; thioether N-14)  7.74
9. CCC(C)[C@@H]1NC(=O)[C@H](Cc2ccc(-c3ccccc3)cc2)NC(=O)[C@H](CC(C)C)NC(=O)[C@H](Cc2c[nH]c3ccccc23)NC(=O)[C@H](CC(=O)O)NC(=O)[C@H](Cc2ccc(C(=O)O)cc2)NC(=O)[C@H](Cc2ccc(OCC(=O)O)cc2)NC(=O)CSC[C@@H](C(=O)N[C@@H](CCN)C(=O)NCCOCCOCC(=O)NCCCCCCCCCCC(=O)O)NC(=O)[C@H](CO)NC(=O)[C@H](C(C)(C)O)NC(=O)[C@H](CC2CCCCC2)NC(=O)[C@H](CCN)NC(=O)[C@@H](CC(C)C)NC(=O)[C@H](C)N(C)C1=O (stereo partly drawn) [Example 1410] ({CH2CO}-Y(Carboxymethyl)[Phe(4-COOH)]DWL[Bip][Ile(3ξ)][NMeA][dL][Dab][Cha][Val(3-OH)]SC[Dab][AEEA][Aun]-OH; thioether N-14)  7.79
10. CC(C)C[C@@H]1NC(=O)[C@H](Cc2c[nH]c3ccccc23)NC(=O)[C@H](CC(=O)O)NC(=O)[C@H](Cc2ccc(C(=O)O)cc2)NC(=O)[C@H](Cc2ccc(OCC(=O)O)cc2)NC(=O)CSC[C@@H](C(=O)N[C@@H](CCN)C(=O)NCCOCCOCC(=O)NCCCCCCCCCCC(=O)O)NC(=O)[C@H](CO)NC(=O)[C@H](C(C)(C)O)NC(=O)[C@H](CC2CCCCC2)NC(=O)[C@H](CCN)NC(=O)[C@@H](CC(C)C)NC(=O)[C@H](C)N(C)C(=O)[C@H](C(C)C)NC(=O)[C@H](Cc2ccc(-c3ccccc3)cc2)NC1=O [Example 1411] ({CH2CO}-Y(Carboxymethyl)[Phe(4-COOH)]DWL[Bip]V[NMeA][dL][Dab][Cha][Val(3-OH)]SC[Dab][AEEA][Aun]-OH; thioether N-14)  8.01
11. Cc1cccc(C[C@@H]2NC(=O)[C@H](CC(=O)O)NC(=O)[C@H](Cc3ccc(OCC(=O)O)cc3)NC(=O)[C@H]([C@@H](C)O)NC(=O)CSC[C@@H](C(=O)NCCOCCOCC(=O)NCCCCCCCCCCC(=O)O)NC(=O)[C@H](CO)NC(=O)[C@H](C(C)(C)O)NC(=O)[C@H](CC3CCCCC3)NC(=O)[C@H](CCN)NC(=O)[C@@H](CC(C)C)NC(=O)[C@H](C)N(C)C(=O)[C@H](CCCNC(N)=O)NC(=O)[C@H](Cc3ccc(-c4ccccc4)cc3)NC(=O)[C@H](C(C)C)NC2=O)c1 [Example 1403] ({CH2CO}-TY(Carboxymethyl)D[Phe(3-Me)]V[Bip][Cit][NMeA][dL][Dab][Cha][Val(3-OH)]SC[AEEA][Aun]-OH; thioether N-14)  8.30
12. CCC(C)[C@@H]1NC(=O)[C@H](Cc2ccc(-c3ccccc3)cc2)NC(=O)[C@H](CC(C)C)NC(=O)[C@H](Cc2c[nH]c3ccccc23)NC(=O)[C@H](CC(=O)O)NC(=O)[C@H](Cc2ccc(C(=O)O)cc2)NC(=O)[C@H](Cc2ccc(OCC(=O)O)cc2)NC(=O)CSC[C@@H](C(=O)N[C@@H](CCN)C(=O)NCCOCCOCC(=O)NCCCCCCCCCCC(=O)O)NC(=O)[C@H](CCC(=O)O)NC(=O)[C@H](C(C)(C)O)NC(=O)[C@H](CC2CCCCC2)NC(=O)[C@H](CCN)NC(=O)[C@@H](CC(C)C)NC(=O)[C@H](C)N(C)C1=O (stereo partly drawn) [Example 1414] ({CH2CO}-Y(Carboxymethyl)[Phe(4-COOH)]DWL[Bip][Ile(3ξ)][NMeA][dL][Dab][Cha][Val(3-OH)]EC[Dab][AEEA][Aun]-OH; thioether N-14)  8.52
